US12551495B2, “Phytoecdysones and derivatives thereof for use in treating disordered respiratory function on viral infection” (priority 2020, dated 2026)

Tests used:
[1] = tested on: hypertensive type SH (spontaneously hypertensive) rats; assay: Mean arterial pressure by telemetry in spontaneously hypertensive rats, single oral administration; assay type: in vivo, rat; settings: Enalapril 50 mg/kg
Protocol: The effects of BIO101 alone were evaluated after a single oral administration. Six SH rats were used in crossover treatments with an elimination period of a minimum of 72 hours between treatments. Prior to the treatment, the animals were equipped with telemetry instruments for measuring arterial pressure. For the experiment described in FIG. 2A the animals received the following treatments: vehicle, either BIO101 at 5 mg/kg, or BIO101 at 50 mg/kg, or Enalapril at 50 mg/kg.
The inventors tested the phytoecdysones and more particularly BIO101 on the mean arterial pressure by telemetry, in hypertensive animals after oral administration at the doses of 5 and 50 mg/kg. The study relates to hypertensive type SH (spontaneously hypertensive) rats.
BIO101 therefore has no anti-hypertensive effect.

[2] = target: T1, Mas receptor (Homo sapiens, UniProt P04201); settings: Dilda et al. 2019; cited from earlier work
T1 sequence (P04201 1-325): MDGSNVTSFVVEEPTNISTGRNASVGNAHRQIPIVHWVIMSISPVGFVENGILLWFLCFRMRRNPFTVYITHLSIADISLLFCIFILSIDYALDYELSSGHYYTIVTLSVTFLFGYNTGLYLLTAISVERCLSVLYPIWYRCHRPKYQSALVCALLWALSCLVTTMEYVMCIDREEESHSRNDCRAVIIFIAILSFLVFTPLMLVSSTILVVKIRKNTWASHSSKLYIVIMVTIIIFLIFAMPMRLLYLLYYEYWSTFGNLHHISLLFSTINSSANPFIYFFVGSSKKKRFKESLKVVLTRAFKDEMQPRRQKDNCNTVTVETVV

[3] = tested on: mouse model of acute lung injury (ALI); settings: Xia et al. 2016, Song et al. 2019; cited from earlier work

Structure (SMILES) | anti-hypertensive activity (mean arterial pressure) [1] | activity on Mas receptor [2] | anti-inflammatory cytokines (IL-4, IL-10) [3] | lung injuries (histological examination) [3] | plasmatic inflammatory cytokines (TNF-α, IL-2, IL-6, IL-8) [3]
CCOC(=O)[C@H](CCc1ccccc1)N[C@@H](C)C(=O)N1CCC[C@H]1C(=O)O [Enalapril] | has an anti-hypertensive activity | – | – | – | –
CC(C)(O)CC[C@@H](O)[C@](C)(O)[C@H]1CC[C@@]2(O)C3=CC(=O)[C@@H]4C[C@@H](O)[C@@H](O)C[C@]4(C)[C@H]3CC[C@]12C [20-hydroxyecdysone] | – | activates | increased | reduction in lung injuries | reduced
